The numbers were not newly measured in patent US20120141548A1, “NOVEL FORMULATION OF MELOXICAM” (FUNDACIONUNIVERSIDAD DEL NORTE, priority 2009, published 2012), which cites them from elsewhere.

The conditions of data set [1]: conventional meloxicam.

The structures appear in SMILES notation.

Turning to `Cc1cnc(NC(=O)C2=C(O)c3ccccc3S(=O)(=O)N2C)s1` [Meloxicam, meloxicam], the water solubility entry is reported as “poorly water soluble”. Also, the Tmax in data set [1] was 4 to 5 h.
